Experimental data: PubChem BioAssay AID1745844 (Carcinogenic Potency Database (CPDB), 2022)
Activity calls are given as the source filed them. No rule for the calls is given here.

Test system: rodent lifetime carcinogenesis bioassay, tumor incidence TD50
Experiment: carcinogenic potency in animals, long-term in vivo studies, CPDB compilation (AID 1745844)

## ClC(Cl)=C(Cl)Cl
mouse, strain B6C3F1, females, by gavage, site: any site (literature study), lesion: several types, types named in the paper, dosed 78 weeks, study length 90 weeks
  TD50: 98.1 mg/kg/day
mouse, strain B6C3F1, females, by gavage, site: liver, lesion: hepatocellular adenoma + hepatocellular carcinoma + neoplastic nodule, dosed 78 weeks, study length 90 weeks
  TD50: 75.6 mg/kg/day
mouse, strain B6C3F1, females, by gavage, site: liver, lesion: hepatocellular carcinoma, dosed 78 weeks, study length 90 weeks
  TD50: 75.6 mg/kg/day
mouse, strain B6C3F1, females, by gavage, site: lung, lesion: alveolar/bronchiolar adenoma + alveolar/bronchiolar carcinoma, dosed 78 weeks, study length 90 weeks
  TD50: 2950 mg/kg/day
mouse, strain B6C3F1, females, inhaled, site: any site (literature study), lesion: several types, types named in the paper, dosed 103 weeks, study length 104 weeks
  TD50: 211 mg/kg/day
mouse, strain B6C3F1, females, inhaled, site: liver, lesion: hepatocellular adenoma + hepatocellular carcinoma + neoplastic nodule, dosed 103 weeks, study length 104 weeks
  TD50: 188 mg/kg/day
mouse, strain B6C3F1, females, inhaled, site: liver, lesion: hepatocellular adenoma + hepatocellular carcinoma, dosed 103 weeks, study length 104 weeks
  TD50: 188 mg/kg/day
mouse, strain B6C3F1, females, inhaled, site: liver, lesion: hepatocellular carcinoma, dosed 103 weeks, study length 104 weeks
  TD50: 200 mg/kg/day
mouse, strain B6C3F1, males, by gavage, site: any site (literature study), lesion: several types, types named in the paper, dosed 78 weeks, study length 90 weeks
  TD50: 160 mg/kg/day
mouse, strain B6C3F1, males, by gavage, site: liver, lesion: hepatocellular adenoma + hepatocellular carcinoma + neoplastic nodule, dosed 78 weeks, study length 90 weeks
  TD50: 123 mg/kg/day
mouse, strain B6C3F1, males, by gavage, site: liver, lesion: hepatocellular carcinoma, dosed 78 weeks, study length 90 weeks
  TD50: 123 mg/kg/day
mouse, strain B6C3F1, males, inhaled, site: any site (literature study), lesion: several types, types named in the paper, dosed 103 weeks, study length 104 weeks
  TD50: 225 mg/kg/day
mouse, strain B6C3F1, males, inhaled, site: liver, lesion: hepatocellular adenoma + hepatocellular carcinoma + neoplastic nodule, dosed 103 weeks, study length 104 weeks
  TD50: 190 mg/kg/day
mouse, strain B6C3F1, males, inhaled, site: liver, lesion: hepatocellular adenoma + hepatocellular carcinoma, dosed 103 weeks, study length 104 weeks
  TD50: 190 mg/kg/day
mouse, strain B6C3F1, males, inhaled, site: liver, lesion: hepatocellular adenoma, dosed 103 weeks, study length 104 weeks
  TD50: 668 mg/kg/day
mouse, strain B6C3F1, males, inhaled, site: liver, lesion: hepatocellular carcinoma, dosed 103 weeks, study length 104 weeks
  TD50: 162 mg/kg/day
mouse, strain B6C3F1, males, inhaled, site: lung, lesion: alveolar/bronchiolar adenoma + alveolar/bronchiolar carcinoma, dosed 103 weeks, study length 104 weeks
  TD50: 6050 mg/kg/day
mouse, strain B6C3F1, males, inhaled, site: mesenteric lymph node + multiple organs + spleen + subcutaneous tissue, lesion: malignant lymphoma, NOS, dosed 103 weeks, study length 104 weeks
  TD50: 681 mg/kg/day
mouse, strain Crj:BDF1, females, inhaled, site: liver, lesion: hepatocellular adenoma, dosed 104 weeks, study length 104 weeks
  TD50: 560 mg/kg/day
mouse, strain Crj:BDF1, females, inhaled, site: liver, lesion: hepatocellular carcinoma, dosed 104 weeks, study length 104 weeks
  TD50: 1420 mg/kg/day
mouse, strain Crj:BDF1, females, inhaled, site: liver, lesion: several types, types named in the paper, dosed 104 weeks, study length 104 weeks
  TD50: 396 mg/kg/day
mouse, strain Crj:BDF1, males, inhaled, site: Harderian gland, lesion: adenoma, dosed 104 weeks, study length 104 weeks
  TD50: 2330 mg/kg/day
mouse, strain Crj:BDF1, males, inhaled, site: liver, lesion: hepatocellular adenoma, dosed 104 weeks, study length 104 weeks
  TD50: 602 mg/kg/day
mouse, strain Crj:BDF1, males, inhaled, site: liver, lesion: hepatocellular carcinoma, dosed 104 weeks, study length 104 weeks
  TD50: 555 mg/kg/day
mouse, strain Crj:BDF1, males, inhaled, site: liver, lesion: several types, types named in the paper, dosed 104 weeks, study length 104 weeks
  TD50: 257 mg/kg/day
rat, strain F344/DuCrj, females, inhaled, site: spleen, lesion: mononuclear-cell leukemia, dosed 104 weeks, study length 104 weeks
  TD50: 1080 mg/kg/day
rat, strain F344/DuCrj, males, inhaled, site: liver, lesion: hepatocellular adenoma, dosed 104 weeks, study length 104 weeks
  TD50: 28300 mg/kg/day
rat, strain F344/DuCrj, males, inhaled, site: spleen, lesion: mononuclear-cell leukemia, dosed 104 weeks, study length 104 weeks
  TD50: 257 mg/kg/day
rat, strain Fischer 344, females, inhaled, site: any site (literature study), lesion: several types, types named in the paper, dosed 103 weeks, study length 104 weeks
  TD50: 869 mg/kg/day
rat, strain Fischer 344, females, inhaled, site: multiple organs + spleen, lesion: mononuclear-cell leukemia, dosed 103 weeks, study length 104 weeks
  TD50: 287 mg/kg/day
rat, strain Fischer 344, males, inhaled, site: any site (literature study), lesion: several types, types named in the paper, dosed 103 weeks, study length 104 weeks
  TD50: 77.7 mg/kg/day
rat, strain Fischer 344, males, inhaled, site: kidney + liver + multiple organs + spleen, lesion: tubular-cell adenoma + tubular-cell adenocarcinoma + mononuclear-cell leukemia, dosed 103 weeks, study length 104 weeks
  TD50: 90.8 mg/kg/day
rat, strain Fischer 344, males, inhaled, site: kidney, lesion: tubular-cell adenoma + tubular-cell adenocarcinoma, dosed 103 weeks, study length 104 weeks
  TD50: 504 mg/kg/day
rat, strain Fischer 344, males, inhaled, site: liver + multiple organs + spleen, lesion: mononuclear-cell leukemia, dosed 103 weeks, study length 104 weeks
  TD50: 101 mg/kg/day
rat, strain Fischer 344, males, inhaled, site: liver, lesion: hepatocellular adenoma + hepatocellular carcinoma + neoplastic nodule, dosed 103 weeks, study length 104 weeks
  TD50: 368 mg/kg/day
rat, strain Fischer 344, males, inhaled, site: testis, lesion: interstitial-cell tumor, dosed 103 weeks, study length 104 weeks
  TD50: 68.6 mg/kg/day
rat, strain Osborne-Mendel, females, by gavage, site: any site (literature study), lesion: several types, types named in the paper, dosed 78 weeks, study length 110 weeks
  TD50: 1710 mg/kg/day
rat, strain Osborne-Mendel, males, by gavage, site: any site (literature study), lesion: several types, types named in the paper, dosed 78 weeks, study length 112 weeks
  TD50: 3020 mg/kg/day

## CN(Cc1cnc2nc(N)nc(N)c2n1)c1ccc(C(=O)N[C@@H](CCC(=O)O)C(=O)O)cc1
hamster, strain Syrian Golden, females, in feed, site: any site (literature study), lesion: several types, types named in the paper, dosed 101 weeks, study length 105 weeks
  carcinogen call: negative (inactive)
hamster, strain Syrian Golden, females, in feed, site: liver, lesion: hepatocellular adenoma, dosed 101 weeks, study length 105 weeks
  TD50: 51.1 mg/kg/day (inactive)
hamster, strain Syrian Golden, females, in feed, site: liver, lesion: several types, types named in the paper, dosed 101 weeks, study length 105 weeks
  TD50: 167 mg/kg/day
hamster, strain Syrian Golden, males, in feed, site: any site (literature study), lesion: several types, types named in the paper, dosed 108 weeks, study length 115 weeks
  carcinogen call: negative (inactive)
hamster, strain Syrian Golden, males, in feed, site: liver, lesion: one or several types, types not named, dosed 108 weeks, study length 115 weeks
  carcinogen call: negative (inactive)
mouse, strain Swiss, females, in feed, site: any site (literature study), lesion: several types, types named in the paper, dosed 120 weeks, study length 120 weeks
  TD50: 48 mg/kg/day (inactive)
mouse, strain Swiss, females, in feed, site: liver, lesion: hepatocellular carcinoma, dosed 120 weeks, study length 120 weeks
  TD50: 65.2 mg/kg/day (inactive)
mouse, strain Swiss, females, in feed, site: lung, lesion: several types, types named in the paper, dosed 120 weeks, study length 120 weeks
  carcinogen call: negative (inactive)
mouse, strain Swiss, males, in feed, site: any site (literature study), lesion: several types, types named in the paper, dosed 118 weeks, study length 120 weeks
  carcinogen call: negative (inactive)
mouse, strain Swiss, males, in feed, site: liver, lesion: hemangioma, dosed 118 weeks, study length 120 weeks
  carcinogen call: negative (inactive)
mouse, strain Swiss, males, in feed, site: lung, lesion: several types, types named in the paper, dosed 118 weeks, study length 120 weeks
  carcinogen call: negative (inactive)
rat, strain BR 46, males, i.v., site: any site (literature study), lesion: benign tumor, dosed 52 weeks, study length 104 weeks
  TD50: 0.409 mg/kg/day (inactive)
rat, strain BR 46, males, i.v., site: any site (literature study), lesion: malignant tumor, dosed 52 weeks, study length 104 weeks
  TD50: 2.96 mg/kg/day (inactive)
rat, strain BR 46, males, i.v., site: any site (literature study), lesion: several types, types named in the paper, dosed 52 weeks, study length 104 weeks
  TD50: 0.33 mg/kg/day (inactive)
rat, strain Sprague-Dawley, females, i.p., site: any site (literature study), lesion: malignant tumor, dosed 104 weeks, study length 104 weeks
  carcinogen call: negative (inactive)
rat, strain Sprague-Dawley, males, i.p., site: any site (literature study), lesion: malignant tumor, dosed 104 weeks, study length 104 weeks
  carcinogen call: negative (inactive)
